Where two headings read alike, the source gives them in different places. Marks after values point to notes of the source that are not given here.
Experiments:
human hepG2 cells = assay: In vitro toxicity in human hepG2 cells (AlamarBlue viability); type: cell-based
Description: For viability assays, cells were seeded in white 96-well Nunclon plates at a density of 20,000 cells/well and left overnight to adhere before experiments were conducted. Zn chelators dissolved in DMSO were added to white 96-well plates containing 20000 HepG2 cells/well at concentrations ranging from 1 to 1×10^−6 mM (max DMSO concentration never exceeded 1%) and incubated for 24 hours at 37° C. After 24 hours, AlamarBlue® cell viability reagent (Thermo Fisher, Carlsbad, USA) was added (10% final concentration) and incubated for 4 hours at 37° C.

[1] = system: K. pneumoniae K66-45 (NDM-1); assay: Microbroth dilution MIC of carbapenem with/without inhibitor; type: cell-based
Description: (§1) • Plate bacterial strain(s) on appropriate media: • Gram-negative bacteria with ESBLs or carbapenemases: green agar plates with 100 mg/L ampicillin • Gram-negative bacteria without β-lactamases: green agar plates • Gram-positive bacteria (Staphylococci and Enterococci): blood agar plates • Incubate o.n. at 37° C. […] (Should be used within 15 min of preparation). • Dilute the 0.5 McFarland suspension 1:100 into MH broth. […] Plate 10 μl of the dilution on MH agar plates (×2). Incubate o.n. at 37° C., count the colonies and calculate the final CFU/ml inoculum in the plate by multiplying the average number of colonies with 10000 and divide by 2. The final inoculum should be between 3-7×10^5 CFU/ml. • Add 50 μl of the prepared bacterial suspension to each well in the microtiter plate except negative growth control. Preparation of Compounds/Antibiotics • Calculate the desired concentration-range and volume of the compounds/antibiotics in the assay. […] Dilute the stock solution in MH broth. Make subsequent 2-fold dilutions in MH broth of the desired concentrations if a concentration range is to be tested (remember the extra dilution factor in the assay plate). Always include extra volume for pipetting. Take into consideration stock solutions that are made in buffers that have an effect on bacterial growth (e.g. DMSO).

[2] = system: P. aeruginosa K34-7 (VIM-2); assay: as above; type: cell-based; settings: for Meropenem activity (MIC) in presence of inhibitor: inhibitor 25 mg/L
Description: as §1

[3] = system: resistant gram-negative MBL-based bacteria; assay: MICx: adjuvant concentration giving carbapenem MIC ≤ 2 mg/L; type: cell-based; settings: lowest concentration of compound X that results in a MIC value of ≤ 2 mg/L for carbapenem antibiotics
Description: as §1

[4] = system: P. aeruginosa 50692172 (NDM-1); assay: Microbroth dilution MIC of meropenem with/without inhibitor; type: cell-based
Description: as §1

VIM-2 = VIM-2 (Escherichia coli, UniProt Q5U7L7); type: biochemical; settings: purified VIM-2, PD-10 column
Description: The eluent used was Chelex-treated HEPES 50 mM buffer, pH 7.5. […] In all experiments, 16 aliquots of 250 μL were taken from the PD-10 column runsout and enzyme activity was analysed. Enzyme activity was measured by adding Nitrocefin as a reporter substrate (final concentration of 50 μM).
To investigate if more extreme time-dependent and concentration-dependent conditions could restore enzyme activity, aliquots having final concentrations of 30 nM column-treated enzyme and 1000 μM Zn^2+ on ice and at room temperature over prolonged time.

[5] = system: K. pneumoniae 50732159 (No MBL); assay: Microbroth dilution MIC of meropenem with/without inhibitor; type: cell-based; settings: inhibitor 25 mg/L
Description: as §1

[6] = system: P. aeruginosa 50808021 (No MBL); assay: as above; type: cell-based; settings: inhibitor 25 mg/L
Description: as §1

K. pneumoniae K66-45 = type: cell-based; settings: inhibitor 25 mg/L
Description: After plating and grown overnight at 37° C., only single colonies, ignoring any touching the edges of the plate, were counted.
10^9 CFU K66-45 (Mueller-Hinton broth, no selection) was plated and grown overnight, 37° C. Only single colonies, ignoring any touching the edges of the plate, were counted.

[7] = system: K. pneumoniae K66-45 and P. aeruginosa K34-7; assay: Microbroth dilution MIC, carbapenem + inhibitor, two resistant clinical isolates; type: cell-based; settings: with meropenem
Description: • Plate bacterial strain(s) on appropriate media: • Gram-negative bacteria with ESBLs or carbapenemases: green agar plates with 100 mg/L ampicillin • Gram-negative bacteria without β-lactamases: green agar plates • Gram-positive bacteria (Staphylococci and Enterococci): blood agar plates • Incubate o.n. at 37° C. Day 2: Prepare the Bacterial Inoculum: • Prepare a 0.5 McFarland suspension of bacteria in 0.85% NaCl. (Should be used within 15 min of preparation). • Dilute the 0.5 McFarland suspension 1:100 into MH broth. Check the inoculum by diluting the prepared bacterial suspension 1:100 (10 μl bacterial suspension+990 μl 0.85% NaCl). Plate 10 μl of the dilution on MH agar plates (×2). Incubate o.n. at 37° C., count the colonies and calculate the final CFU/ml inoculum in the plate by multiplying the average number of colonies with 10000 and divide by 2. The final inoculum should be between 3-7×10^5 CFU/ml. • Add 50 μl of the prepared bacterial suspension to each well in the microtiter plate except negative growth control. Preparation of Compounds/Antibiotics • Calculate the desired concentration-range and volume of the compounds/antibiotics in the assay. […] Dilute the stock solution in MH broth. Make subsequent 2-fold dilutions in MH broth of the desired concentrations if a concentration range is to be tested (remember the extra dilution factor in the assay plate). Always include extra volume for pipetting. Take into consideration stock solutions that are made in buffers that have an effect on bacterial growth (e.g. DMSO).

[8] = human hepG2 cells, read-out: IC50h
[9] = human hepG2 cells, 24 hours, AlamarBlue, 8 replicates, read-out: IC50

MICx [3]	SMILES	IC50 (human hepG2 cells; [8]) [µM]	Meropenem activity in presence of inhibitor [5] [mg/L]	Meropenem activity in presence of inhibitor [6] [mg/L]	adjuvant effect at an inhibitor concentration of 25 mg/L [7]	also measured
> 1000^d μM	C[C@H](CS)C(=O)N1CCC[C@H]1C(=O)O [Captopril, reference compound]	33				Meropenem activity in presence of inhibitor ([1]; inhibitor 63 mg/L, K. pneumoniae K66-45 NDM-1): 64 mg/L; Meropenem activity in presence of inhibitor ([2]; inhibitor 63 mg/L): 32 mg/L; Meropenem activity in presence of inhibitor ([4]; inhibitor 63 mg/L): 32 to 64 mg/L
	O=C(Cc1ccc(NC(=O)CN(CCN(Cc2ccccn2)Cc2ccccn2)Cc2ccccn2)cc1)NC[C@@H](O)CO [Example 23, (R)-2-((2-(bis(pyridin-2-ylmethyl)amino)ethyl)(pyridin-2-ylmethyl)amino)-N-(4-(2-(2,3-dihydroxypropylamino)-2-oxoethyl)phenyl)acetamide]		32	>64		Meropenem activity (MIC) in presence of inhibitor [2]: 1 mg/L; Meropenem activity in presence of inhibitor ([4]; inhibitor 25 mg/L): 1 mg/L
31 µM	CN(C[C@H](O)[C@@H](O)[C@H](O)[C@H](O)CO)C(=O)Cc1ccc(NC(=O)c2ccc(CN(Cc3ccccn3)Cc3ccccn3)nc2)cc1 [Example 99, 6-((bis(pyridin-2-ylmethyl)amino)methyl)-N-(4-(2-(methyl((2S,3R,4R,5R)-2,3,4,5,6-pentahydroxyhexyl)amino)-2-oxoethyl)phenyl)nicotinamide]	217	32	>64		IC50 (human hepG2 cells; [9]): 217 µM
31 µM	O=C(Cc1ccc(NC(=O)c2ccc(CN(Cc3ccccn3)Cc3ccccn3)nc2)cc1)NC(CO)(CO)CO [Example 100, 6-((bis(pyridin-2-ylmethyl)amino)methyl)-N-(4-(2-(1,3-dihydroxy-2-(hydroxymethyl)propan-2-ylamino)-2-oxoethyl)phenyl)nicotinamide]	118	32	>64		IC50 (human hepG2 cells; [9]): > 100 µM
	COC(=O)c1ccc(CN(Cc2ccccn2)Cc2ccccn2)s1 [Example 180, Methyl 5-((bis(pyridin-2-ylmethyl)amino)methyl)thiophene-2-carboxylate]				completely abolishes the adjuvant effect	IC50 (human hepG2 cells; Homo sapiens, HepG2, 24 h): ~80 µM
	CN(C[C@H](O)[C@@H](O)[C@H](O)[C@H](O)CO)C(=O)c1ccc(CN(Cc2ccccn2)Cc2ccccn2)s1 [Example 182, 5-((bis(pyridin-2-ylmethyl)amino)methyl)-N-methyl-N-((2S,3R,4R,5R)-2,3,4,5,6-pentahydroxyhexyl)thiophene-2-carboxamide]				completely abolishes the adjuvant effect	
	CN(C[C@H](O)[C@@H](O)[C@H](O)[C@H](O)CO)C(=O)c1ccc(CN(Cc2ccccc2)Cc2ccccc2)nc1 [Example 185, 6-((dibenzylamino)methyl)-N-methyl-N-((2S,3R,4R,5R)-2,3,4,5,6-pentahydroxyhexyl)nicotinamide]				completely abolishes the adjuvant effect	
	CN(C[C@H](O)[C@@H](O)[C@H](O)[C@H](O)CO)C(=O)c1ccc(CN(Cc2ccccc2)Cc2ccccn2)nc1 [Example 187, 6-((benzyl(pyridin-2-ylmethyl)amino)methyl)-N-methyl-N-((2S,3R,4R,5R)-2,3,4,5,6-pentahydroxyhexyl)nicotinamide]				completely abolishes the adjuvant effect	
	COC(=O)[C@@H](C)NC(=O)[C@@H](C)NC(=O)Cn1cc(CN(Cc2ccccn2)Cc2ccccn2)nn1 [Example 194, Methyl (2-(4-((bis(pyridin-2-ylmethyl)amino)methyl)1H-1,2,3-triazol-1-yl)acetyl)-D-alanyl-D-alaninate, reference compound]		32	>64		Meropenem activity in presence of inhibitor ([4]; inhibitor 25 mg/L): 32 mg/L; RF - no of colonies (K. pneumoniae K66-45; MEM 1 mg/L): tntc (tntc = too numerous to count, plates containing either confluent growth or >1000 colonies); RF - no of colonies (K. pneumoniae K66-45; MEM 2 mg/L): tntc (tntc = too numerous to count, plates containing either confluent growth or >1000 colonies); RF - no of colonies (K. pneumoniae K66-45; MEM 4 mg/L): tntc (tntc = too numerous to count, plates containing either confluent growth or >1000 colonies); RF - no of colonies (K. pneumoniae K66-45; MEM 8 mg/L): tntc (tntc = too numerous to count, plates containing either confluent growth or >1000 colonies)

SMILES	MICx [3]	IC50 (human hepG2 cells; [8]) [µM]	Meropenem activity in presence of inhibitor [5] [mg/L]	Meropenem activity in presence of inhibitor [6] [mg/L]	adjuvant effect at an inhibitor concentration of 25 mg/L [7]	also measured
O=C(O)CN(CCN(CC(=O)O)CC(=O)O)CC(=O)O [EDTA, ethylenediaminetetra-acetic acid, reference compound]	15 µM					IC50 (human hepG2 cells; Homo sapiens, HepG2, estimated values (footnote c), read-out: IC50h): 30 µM; irreversibility of VIM-2 inhibition (VIM-2): did not inhibit VIM-2 irreversibly
CN(C[C@H](O)[C@@H](O)[C@H](O)[C@H](O)CO)C(=O)Cc1ccc(NC(=O)CN(CCN(Cc2ccccn2)Cc2ccccn2)Cc2ccccn2)cc1 [Example 25, 2-(4-(2-((2-(bis(pyridin-2-ylmethyl)amino)ethyl)(pyridin-2-ylmethyl)amino)acetamido)phenyl)-N-methyl-N-(2,3,4,5,6-pentahydroxyhexyl)acetamide]	31 µM	113	64	>64		IC50 (human hepG2 cells; [9]): 113 µM; MIC ([1]; Klebsiella pneumoniae, inhibitor 31.25 μM, 50 μM and 100 μM, K. pneumoniae K66-45, read-out: MIC of MEM in the presence of inhibitor): 0.125 mg/L; Meropenem activity (MIC) in presence of inhibitor [2]: 2 mg/L; Meropenem activity in presence of inhibitor ([4]; inhibitor 25 mg/L): 2 mg/L; RF - no of colonies (K. pneumoniae K66-45; MEM 1 mg/L): 64 colonies
